Assay results published in US4757055A, “Method for selectively controlling unwanted expression or function of foreign nucleic acids in animal or mammalian cells” (The Johns Hopkins University, priority 1984, dated 1988).

Tests used:
E. coli B = assay: Colony formation by E. coli B (Example 1); type: cell-based; details: 37° C.
Description: (1) E. coli, E. coli B was grown in M-9 medium supplemented with glucose ([…]) and 1% casamino acids. The cells were harvested in mid-log phase and resuspended in 50 μL of fresh medium containing 0-160 μM oligomer at a final cell density of 1×10^4 cells/mL. The cells were incubated for 1 h at 37° C. and then diluted with 0.9 mL of medium. A 0.8-mL aliquot was added to 2.5 mL of 0.8% Bactoagar at 45° C. This solution was quickly poured onto a 100-mm plate containing solid 1.2% Bactoagar. After solidification, the plates were incubated overnight at 37° C. and the resulting colonies were counted.

[1] = tested on: transformed human fibroblast (HTB 1080) cells; assay: Colony formation by transformed human fibroblasts (Example 1); type: cell-based; details: 50 μM; 37° C.
Description: (2) Transformed Syrian Hamster Embryonic Fibroblasts (BP-6) and Transformed Human Fibroblasts (HTB1080). Colony formation by the fibroblasts in the presence of the methylphosphonate analogues was carried out as described by Miller et al, Biochemistry 16, 1988 (1977).

Substance: d-ApT
- % inhibition of colony formation, E. coli B (E. coli B; 50 μM): 4%
- % inhibition of colony formation, E. coli B (E. coli B; 160 μM): 5%
- % inhibition of colony formation, HBT 1080 [1]: 12%
